Experiments:
soybean 15-LOX = target: T1, soybean 15-LOX (Glycine max, UniProt P08170); test: 15-LOX inhibition assay; type: biochemical; details: for inhibition at 250 µM: read-out: 15-LOX assay Inhibition (%) at 0.25 mM; for 15-LOX assay Inhibition (%) at 0.25 mM / 15-LOX assay IC50 (μM) / IC50: Mean ± SEM, n = 3; for IC50: read-out: 15-LOX assay IC50
T1 sequence (P08170 1-839): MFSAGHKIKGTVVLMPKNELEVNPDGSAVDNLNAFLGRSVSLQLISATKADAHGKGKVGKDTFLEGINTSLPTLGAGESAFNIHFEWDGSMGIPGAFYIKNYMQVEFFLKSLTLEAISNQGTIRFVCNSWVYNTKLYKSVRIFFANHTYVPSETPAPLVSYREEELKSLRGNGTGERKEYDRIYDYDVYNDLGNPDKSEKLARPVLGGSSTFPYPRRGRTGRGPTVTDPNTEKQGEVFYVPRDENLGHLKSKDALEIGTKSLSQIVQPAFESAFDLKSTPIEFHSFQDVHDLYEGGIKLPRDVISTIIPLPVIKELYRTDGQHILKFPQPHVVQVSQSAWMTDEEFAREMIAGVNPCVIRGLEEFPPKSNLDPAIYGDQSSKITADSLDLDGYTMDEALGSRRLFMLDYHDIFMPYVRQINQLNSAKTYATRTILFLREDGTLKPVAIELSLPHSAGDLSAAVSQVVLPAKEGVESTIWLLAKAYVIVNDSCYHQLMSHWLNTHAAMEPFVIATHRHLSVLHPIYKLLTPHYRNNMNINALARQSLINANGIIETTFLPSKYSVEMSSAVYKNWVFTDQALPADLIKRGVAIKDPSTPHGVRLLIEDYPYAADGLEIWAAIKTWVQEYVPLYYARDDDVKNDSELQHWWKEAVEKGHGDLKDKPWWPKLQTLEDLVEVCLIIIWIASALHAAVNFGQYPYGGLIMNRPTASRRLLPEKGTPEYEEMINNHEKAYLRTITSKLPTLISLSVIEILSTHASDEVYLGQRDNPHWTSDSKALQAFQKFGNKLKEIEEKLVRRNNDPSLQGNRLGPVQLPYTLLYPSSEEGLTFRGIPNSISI

LOX = LOX inhibition; cited from earlier work
[1] = test system: human blood mononuclear cells (MNCs); test: Cell viability assay; type: cell-based; details: MNCs; 0.25 mM; Mean ± SEM, n = 3
Cell viability assay = type: cell-based, human; details: human, human blood mononuclear cells (MNCs), pH 7.4

For `O=c1cc(-c2ccccc2)oc2cc(O)c(O)c(O)c12` [Baicalein, reference compound], the inhibition at 250 µM (soybean 15-LOX) was 93.8 ± 1.27%.

In the case of `Cc1ccc(NN=C2C(=N)N(c3ccc(S(N)(=O)=O)cc3)N=C2N)cc1` [ii, 4-{3-amino-4-[(4-methylphenyl)-hydrazono]-5-imino-4,5-dihydropyrazol-1-yl}-benzenesulfonamide], the IC50 (LOX) is given as 1.92 ± 0.01 µM.

For `COc1ccc(-c2csc3nc(-c4ccccc4)c(NC(C)(C)CC(C)(C)C)n23)cc1` [i, 3-(4-methoxyphenyl)-N-(2,4,4-trimethylpentane-2-yl)-6-phenylimidazo [2,1-b]thiazol-5-amine], the IC50 (LOX) is given as 11.5 ± 0.78 µM.

`O=c1c(O)c(-c2ccc(O)c(O)c2)oc2cc(O)cc(O)c12` [Quercetin, reference compound] gave an inhibition at 250 µM (soybean 15-LOX) of 96.6 ± 1.24%.

In the case of `CCn1c(SC(C)C(=O)Nc2cc(C)cc(C)c2)nnc1C1CCN(C(=O)Nc2ccccc2)CC1` (centres unmarked) [7m, 2-(5-(1-Phenylcarbamoylpiperdine-4-yl)-4-ethyl-4H-1,2,4-triazol-3-ylthio)-N-3,5-dimethylphenylpropanamide], the “MTT assay Cell viability (%) at 0.25 mM” value [1] is reported as 78.24 ± 2.7%, the “15-LOX assay Inhibition (%) at 0.25 mM” value (soybean 15-LOX) is reported as 57.37 ± 1.46% and the “15-LOX assay IC50 (μM)” value (soybean 15-LOX) is reported as “inactive”. For the same molecule, the IC50 (soybean 15-LOX) was greater than 200 µM.

Work on `COc1cc(/C=C/C(=O)CC(=O)/C=C/c2ccc(O)c(OC)c2)ccc1O` [Curcumin, reference compound] yielded a viability at 2 h, 0.25 mM (Cell viability assay) of 71.8 ± 2.8%.

Work on `O=P1(N(CCCl)CCCl)NCCCO1` (centres unmarked) [Cyclophosphamide, reference compound] yielded a viability at 2 h, 0.25 mM (Cell viability assay) of 58.5 ± 2.6%.

With `CCn1c(SC(C)C(=O)Nc2c(C)cccc2C)nnc1C1CCN(C(=O)Nc2ccccc2)CC1` (centres unmarked) [7k, 2-(5-(1-Phenylcarbamoylpiperdine-4-yl)-4-ethyl-4H-1,2,4-triazol-3-ylthio)-N-2,6-dimethylphenylpropanamide] the “MTT assay Cell viability (%) at 0.25 mM” value [1] was 75.67 ± 2.8%, the “15-LOX assay Inhibition (%) at 0.25 mM” value (soybean 15-LOX) was 56.49 ± 1.59% and the “15-LOX assay IC50 (μM)” value (soybean 15-LOX) was “inactive”. For the same molecule, the IC50 (soybean 15-LOX) was greater than 200 µM.
